From paper PMC12670426 (Journal of Medicinal Chemistry, 2025)
Where two headings read alike, the source gives them in different places.

Assays:
[1] = biological target: T1, human galectin-3C (Gal-3C, C-terminal CRD of galectin-3) (Homo sapiens, UniProt P17931); assay: Competitive fluorescence polarization assay, Gal-3C; format: binding
T1 construct: only the C-terminal domain was used (Gal-3C); 6xHis tag with TEV protease site (N, cleaved yes); made in house; host or cells: BL21 Escherichia coli (pET-15b)
T1 sequence (P17931 118-248 limits assumed): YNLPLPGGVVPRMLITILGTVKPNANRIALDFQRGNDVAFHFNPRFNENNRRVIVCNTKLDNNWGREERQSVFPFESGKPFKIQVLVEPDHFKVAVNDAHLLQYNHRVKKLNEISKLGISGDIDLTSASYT
Procedure: (§1) Our investigation of the structure–activity relationship of N-aryl-N-lactosylamides started with an initial screening of substituted acetanilides (Table ). These compounds can be readily synthesized from a wide range of commercially available substituted anilines. Affinity was evaluated using a fluorescence polarization assay, which enables reliable determination of dissociation constants (K d) between small molecules and galectins. All inhibitors in this series were tested against the two most common human galectins: Gal-1 and Gal-3. Gal-1 is a prototype galectin consisting of a single CRD and was used in full length. In the case of Gal-3, which consists of the C-terminal CRD and N-terminal unfolded region, only the C-terminal domain was used (Gal-3C). Affinities were compared to methyl β-lactoside (β-LacOMe) as a baseline.
(§2) Fluorescence polarization experiments for determining inhibitor affinities were performed using the same instrumentation and settings as described for the direct binding experiments. […] The galectin–probe mixture was subsequently added using a Certus Flex liquid handler (Fritz Gyger AG, Switzerland) to reach a final volume of 5 μL. Anisotropy was measured after 30–60 min incubation at 25 °C. Inhibitor dissociation constants (K d) were calculated using Wang’s exact cubic model for competitive binding implemented in the BindCurve package. Protein and probe concentrations used in these competitive experiments are provided in the Supporting Information.
(§3) Competitive binding was modeled by Wang’s exact cubic model,3 which is written as […]
(§4) r = rmin + (rmax − rmin) 3 (6) […]
(§5) where r, rmin and rmax have the same meaning as in Equation 1. The coefficients a, b, and c are […]
(§6) a = Kd∗ + Kd + [L∗]T + [L]T − [R]T (7) b = Kd∗([L]T − [R]T) + Kd([L∗]T − [R]T) + Kd∗ Kd (8) […]
(§7) where Kd∗ is the dissociation constant of the probe, Kd is the dissociation constant of the […]
(§8) the unlabeled ligand, and [R]T is the total concentration of the receptor. The angle θ is defined […]
(§9) In the competitive binding experiments, the values of [L∗]T, [R]T and Kd∗ are known and [L]T is titrated. The values of minimal and maximal anisotropy rmin and rmax were fixed during fitting at the values of the minimal and maximal asymptotes obtained from the direct binding experiments. The value of Kd was calculated as the only unfixed parameter in the model.
(§10) Experimental constants used for the competitive fluorescence polarization experiments are […]
(§11) Table S2. Experimental constants used for competitive fluorescence polarization experiments. […]

[2] = Plasma stability assay, rat plasma; format: in vitro ADME; settings: 37 °C
Procedure: (§12) Test compounds (10 μM) were incubated with mouse, rat, or human pooled plasma from 50 donors (Biowest) at 37 °C for 20, 60, and 120 min. Reactions were terminated by adding four volumes of ice-cold methanol, followed by vigorous mixing. Samples were kept at −20 °C for 30 min and then stored at 4 °C overnight. The next day, samples were centrifuged, and supernatants were diluted with four volumes of 30% methanol in water. Zero time points were prepared by adding ice-cold methanol to the compound prior to the addition of plasma. Samples were then analyzed on an Echo MS system (SCIEX) using multiple reaction monitoring (MRM). The only exception was compound 3af, which was analyzed by LC–MS/MS (SCIEX 6500 triple quadrupole) due to its weak ionization in Echo-MS.

[3] = Plasma stability assay, mouse plasma; format: in vitro ADME; settings: 37 °C
Procedure: as §12

[4] = Plasma protein binding assay (rapid equilibrium dialysis), rat plasma; format: in vitro ADME; settings: fraction bound, read-out: plasma protein binding Fb rat (converted)
Procedure: (§13) Test compound (10 μM) was incubated at 37 °C for 4 h with mouse, rat, or human plasma (Biowest) in the donor well of a rapid equilibrium dialysis plate (Thermo Fisher Scientific). PBS was placed in the acceptor well. To stop the assay, samples were collected from both wells, and an equal volume of plasma was added to the PBS sample, and vice versa. Proteins were then precipitated by adding three volumes of ice-cold methanol. Samples were mixed gently, kept at −20 °C for 30 min, and then stored at 4 °C overnight. The next day, the samples were centrifuged, and the supernatants were diluted with four volumes of 30% methanol in water. The samples were then analyzed using the Echo-MS system (SCIEX) with MRM transition monitoring, except for compound 3af, which was analyzed by LC–MS/MS as described in the plasma stability assay.

[5] = Microsomal stability assay, mouse liver microsomes; format: in vitro ADME; settings: pooled liver microsomes, pH 7.4, mouse liver microsomes 0.5 mg/mL, NADPH
Procedure: (§14) Microsomal stability was determined using 0.5 mg/mL of pooled human, mouse, or rat liver microsomes (Thermo Fisher Scientific) in 90 mM TRIS-Cl buffer (pH 7.4) containing 2 mM NADPH and 2 mM MgCl2. Test compounds (10 μM) were added, and the resulting mixture was incubated at 37 °C for 10, 60, 120, and 180 min. The reactions were terminated by the addition of four volumes of ice-cold methanol, followed by vigorous mixing. The samples were left at −20 °C for 30 min and then stored at 4 °C overnight. The next day, samples were centrifuged, and supernatants were diluted with four volumes of 30% methanol in water. Zero time points were prepared by adding ice-cold methanol to the mixture of compounds and cofactors prior to the addition of microsomes. The samples were then analyzed using the Echo-MS system (SCIEX) with MRM transition monitoring, except for compound 3af, which was analyzed by LC–MS/MS as described in the plasma stability assay.

[6] = Plasma protein binding assay (rapid equilibrium dialysis), mouse plasma; format: in vitro ADME; settings: fraction bound, read-out: plasma protein binding Fb mouse (converted)
Procedure: as §13

[7] = Microsomal stability assay, human liver microsomes; format: in vitro ADME; settings: pooled liver microsomes, pH 7.4, human liver microsomes 0.5 mg/mL, NADPH
Procedure: as §14

[8] = Kinetic solubility assay in PBS; format: physicochemical; settings: aqueous buffer, kinetic from dmso stock; PBS at pH 7.4, 100 μM final, 2 h room temperature
Procedure: The solutions were incubated at room temperature for 2 h and filtered by centrifugation. Filtrates were diluted 100-fold with 50% acetonitrile in water and then analyzed on the Echo-MS system (SCIEX) using MRM transition monitoring, except for compound 3af, which was analyzed by LC–MS/MS as described in the plasma stability assay. Compound concentrations were quantified against calibration curves prepared in the identical matrix as the samples.

[9] = Plasma protein binding assay (rapid equilibrium dialysis), human plasma; format: in vitro ADME; settings: fraction bound, read-out: plasma protein binding Fb human (converted)
Procedure: as §13

[10] = biological target: T2, human galectin-1 (Gal-1, full length) (Homo sapiens, UniProt P09382); assay: Competitive fluorescence polarization assay, Gal-1; format: binding
T2 construct: Gal-1 is a prototype galectin consisting of a single CRD and was used in full length; 6xHis tag with TEV protease site (N, cleaved yes); made in house; host or cells: BL21 Escherichia coli (pET-15b)
T2 sequence (P09382 2-135): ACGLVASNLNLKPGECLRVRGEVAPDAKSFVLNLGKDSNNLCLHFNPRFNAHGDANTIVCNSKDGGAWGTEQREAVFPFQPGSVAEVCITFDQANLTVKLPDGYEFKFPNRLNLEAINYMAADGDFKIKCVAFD
Procedure: as §1, §2, §3, §4, §5, §6, §7, §8, §9, §10, §11

[11] = Plasma stability assay, human plasma; format: in vitro ADME; settings: pooled plasma, 37 °C
Procedure: as §12

[12] = Microsomal stability assay, rat liver microsomes; format: in vitro ADME; settings: pooled liver microsomes, pH 7.4, rat liver microsomes 0.5 mg/mL, NADPH
Procedure: as §14

[13] = Plasma protein binding, summary across species; format: in vitro ADME; settings: summary across human, mouse and rat plasma
Procedure: as §13

[14] = CSV supplement, unrounded mean, read-out: Gal3C_IC50_mean_uM
[15] = CSV supplement, unrounded mean, read-out: Gal3C_Kd_mean_uM
[16] = competitive fluorescence polarization, mean ± SD, read-out: Kd Gal-3C
[17] = four-parameter logistic model, mean ± SD, read-out: IC50 Gal-3C
[18] = CSV supplement, unrounded mean, read-out: Gal1_IC50_mean_uM
[19] = CSV supplement, unrounded mean, read-out: Gal1_Kd_mean_uM
[20] = competitive fluorescence polarization, mean ± SD, read-out: Kd Gal-1
[21] = four-parameter logistic model, mean ± SD, read-out: IC50 Gal-1

Row | IC50 [1, 14] [µM] | Kd [1, 15] [µM] | Kd [1, 16] [µM] | IC50 [1, 17] [µM] | remaining at 2 h, 10 μM [2] [%] | remaining at 2 h, 10 μM [3] [%] | fraction unbound at 4 h, 10 μM [4] | microsomal CLint at 10 μM [5] [µL/min/mg] | fraction unbound at 4 h, 10 μM [6] | microsomal CLint at 10 μM [7] [µL/min/mg] | solubility kinetic at 2 h [8] [µM] | fraction unbound at 4 h, 10 μM [9] | IC50 [10, 18] [µM] | Kd [10, 19] [µM] | Kd [10, 20] [µM] | IC50 [10, 21] [µM] | remaining at 2 h, 10 μM [11] [%] | microsomal CLint at 10 μM [12] [µL/min/mg] | fraction unbound at 4 h, 10 μM [13] | SMILES | also measured
1 | 32.2 | 11.4 | 11 ± 2 | 32 ± 2 | 140 ± 7 | 110 ± 2 | 0.94 | < 2 | 0.93 | < 2 | > 100 | 0.94 | 1240 | 737 | 740 ± 20 | 1200 ± 300 | 99 ± 8 | < 2 | > 0.9 | CC(=O)N(c1cc(O)cc(C(=O)O)c1)[C@@H]1O[C@H](CO)[C@@H](O[C@@H]2O[C@H](CO)[C@H](O)[C@H](O)[C@H]2O)[C@H](O)[C@H]1O [Compound 3ad, N-[4-O-(β-D-Galactopyranosyl)-β-D-glucopyranosyl]-N-(3-carboxy-5-hydroxyphenyl)acetamide] | 
2 | 0.154 | 0.0315 | 0.031 ± 0.004 | 0.15 ± 0.009 | 110 ± 5 | 89 ± 5 | 0.75 | < 2 | 0.78 | < 2 | > 100 | 0.66 | 7.16 | 3.62 | 3.6 ± 0.4 | 7.2 ± 0.6 | 92 ± 6 | < 2 | 0.1 to 0.78 | CC(=O)c1c[nH]c2cc(C(=O)O)cc(N(C(C)=O)[C@@H]3O[C@H](CO)[C@@H](S[C@@H]4O[C@H](CO)[C@H](O)[C@H](n5cc(-c6cccc(F)c6)nn5)[C@H]4O)[C@H](O)[C@H]3O)c12 [Compound 10, N-[4-S-(3-Deoxy-3-(4-(3-fluorophenyl)-1H-1,2,3-triazol-1-yl)-β-D-galactopyranosyl)-4-thio-β-D-glucopyranosyl]-N-(3-acetyl-6-carboxy-1H-indol-4-yl)acetamide] | 
3 | 11.4 | 4.15 | 4.1 ± 0.4 | 11 ± 0.9 | 94 | 76 | 0.73 | < 2 | > 0.95 | 3 | > 100 | > 0.95 | 1530 | 846 | 850 ± 200 | 1500 ± 300 | 100 | < 2 | > 0.9 | CC(=O)N(c1cc(C(=O)O)cc2[nH]ccc12)[C@@H]1O[C@H](CO)[C@@H](O[C@@H]2O[C@H](CO)[C@H](O)[C@H](O)[C@H]2O)[C@H](O)[C@H]1O [Compound 3af, N-[4-O-(β-D-Galactopyranosyl)-β-D-glucopyranosyl]-N-(6-carboxy-1H-indol-4-yl)acetamide] | enhancement of affinity for Gal-3C compared to 3r ([1]; compared to 3r): 10 fold; improvement in affinity toward Gal-3C compared to 3a ([1]; compared to unsubstituted phenyl derivative 3a): 27 fold; improvement in affinity toward Gal-3C compared to β-LacOMe ([1]; compared to β-LacOMe): 56 fold; selectivity for Gal-3C over Gal-1 ([1]; ratio Kd (Gal-1)/Kd (Gal-3C)): more than 200 fold
4 | 120 | 51.3 | 51 ± 10 | 120 ± 9 |  |  |  |  |  |  |  |  | 1310 | 841 | 840 ± 80 | 1300 ± 30 |  |  |  | O=C(O)c1cccc(N(C(=O)c2ccccc2)[C@@H]2O[C@H](CO)[C@@H](O[C@@H]3O[C@H](CO)[C@H](O)[C@H](O)[C@H]3O)[C@H](O)[C@H]2O)c1 [Compound 3t, N-[4-O-(β-D-Galactopyranosyl)-β-D-glucopyranosyl]-N-(3-carboxyphenyl)benzamide] | 
5 | 500 | 182 | 180 ± 50 | 500 ± 30 |  |  |  |  |  |  |  |  | 1570 | 1010 | 1000 ± 70 | 1600 ± 300 |  |  |  | C#Cc1cccc(N(C(C)=O)[C@@H]2O[C@H](CO)[C@@H](O[C@@H]3O[C@H](CO)[C@H](O)[C@H](O)[C@H]3O)[C@H](O)[C@H]2O)c1 [Compound 3c, N-[4-O-(β-D-Galactopyranosyl)-β-D-glucopyranosyl]-N-(3-ethynylphenyl)acetamide] | 
